Experimental data from PubChem BioAssay AID2060618 (Molecular Pharmacology Branch, DTP, NCI, 2025).
“And” between values parts separate entries of the source, which are not always exact repeats. Equal values may be shown once.

System: 454973-116-R2-J3-PDC spheroids, percent test/control viability
Assay: Anticancer human tumor 454973-116-R2-J3-PDC patient-derived pancreatic carcinoma cell line growth inhibition [CLK]
Settings: spheroids with HUVEC and MSC; for viability, T/C: stronger effect = lower value
Procedure, shortened: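 Multi-cell-type spheroids combined patient-derived tumor cells with HUVEC endothelial cells and human mesenchymal stem cells. Paired agents were dosed in half-log steps down from about clinical Cmax, or from 10 microM where Cmax was unknown.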

[1] = curve of first compound, second compound 0.0316 µM
[2] = curve of first compound, second compound 0.1 µM
[3] = curve of first compound, second compound 0.316 µM
[4] = curve of first compound, second compound 1 µM
[5] = curve of first compound, second compound 3.16 µM
[6] = curve of first compound, second compound 10 µM
[7] = second compound 0.0316 µM, first compound 0.0316 µM
[8] = second compound 0.0316 µM, first compound 0.1 µM
[9] = second compound 0.0316 µM, first compound 0.316 µM
[10] = second compound 0.0316 µM, first compound 1 µM
[11] = second compound 0.0316 µM, first compound 3.16 µM
[12] = second compound 0.0316 µM, first compound 10 µM
[13] = second compound 0.1 µM, first compound 0.0316 µM
[14] = second compound 0.1 µM, first compound 0.1 µM
[15] = second compound 0.1 µM, first compound 0.316 µM
[16] = second compound 0.1 µM, first compound 1 µM
[17] = second compound 0.1 µM, first compound 3.16 µM
[18] = second compound 0.1 µM, first compound 10 µM
[19] = second compound 0.316 µM, first compound 0.0316 µM
[20] = second compound 0.316 µM, first compound 0.1 µM
[21] = second compound 0.316 µM, first compound 0.316 µM
[22] = second compound 0.316 µM, first compound 1 µM
[23] = second compound 0.316 µM, first compound 3.16 µM
[24] = second compound 0.316 µM, first compound 10 µM
[25] = second compound 1 µM, first compound 0.0316 µM
[26] = second compound 1 µM, first compound 0.1 µM
[27] = second compound 1 µM, first compound 0.316 µM
[28] = second compound 1 µM, first compound 1 µM
[29] = second compound 1 µM, first compound 3.16 µM
[30] = second compound 1 µM, first compound 10 µM
[31] = second compound 3.16 µM, first compound 0.0316 µM
[32] = second compound 3.16 µM, first compound 0.1 µM
[33] = second compound 3.16 µM, first compound 0.316 µM
[34] = second compound 3.16 µM, first compound 1 µM
[35] = second compound 3.16 µM, first compound 3.16 µM
[36] = second compound 3.16 µM, first compound 10 µM
[37] = second compound 10 µM, first compound 0.0316 µM
[38] = second compound 10 µM, first compound 0.1 µM
[39] = second compound 10 µM, first compound 0.316 µM
[40] = second compound 10 µM, first compound 1 µM
[41] = second compound 10 µM, first compound 3.16 µM
[42] = second compound 10 µM, first compound 10 µM
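Note: spheroids exposed to compounds for 7 days before readout.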

In the case of COC1C=CCC(C)C(C)S(=O)(=O)NC(=O)c2ccc3c(c2)N(CC2CCC21)CC1(CCCc2cc(Cl)ccc21)CO3 (configuration not stated), the viability, T/C (compound 0.0316 µM) is reported as 109% and 95.4%, the viability, T/C (compound 0.1 µM) is reported as 103% and 97.3% and the viability, T/C (compound 0.316 µM) is reported as 95.6% and 90.4%. For the same compound, the viability, T/C (compound 1 µM) was 94.7%, the viability, T/C (compound 3.16 µM) was 99.9% and 80.9% and the viability, T/C (compound 10 µM) was 8.41% and 5.61%. The IC50 (curve of compound) was 5920 nM and 5070 nM.
In the case of CCCS(=O)(=O)Nc1ccc(F)c(C(=O)c2c[nH]c3ncc(-c4ccc(Cl)cc4)cc23)c1F + CN1CCN(c2cc(C(=O)Nc3cc4cc(-c5cnn(C)c5)ccc4cn3)ccn2)CC1, the IC50 [1] is reported as 7050 nM, the IC50 [2] is reported as 5490 nM and the IC50 [3] is reported as less than 31.6 nM. The IC50 [4] was less than 31.6 nM, the IC50 [5] was less than 31.6 nM and the IC50 [6] was less than 31.6 nM. The viability, T/C [7] was 79.2%, the viability, T/C [8] was 101% and the viability, T/C [9] was 95.7%. It also gave a viability, T/C [10] of 105%, a viability, T/C [11] of 107% and a viability, T/C [12] of 29.3%. The viability, T/C [13] was 73.9%, the viability, T/C [14] was 80.6% and the viability, T/C [15] was 100%. It also gave a viability, T/C [16] of 96.7%, a viability, T/C [17] of 83.7% and a viability, T/C [18] of 13.2%. The viability, T/C [19] was 1.36%, the viability, T/C [20] was 1.57% and the viability, T/C [21] was 1.57%. For the same compound, the viability, T/C [22] was 2.69%, the viability, T/C [23] was 2.52% and the viability, T/C [24] was 0.54%. For the same compound, the viability, T/C [25] was 0.13%, the viability, T/C [26] was 0.17% and the viability, T/C [27] was 0.16%. The viability, T/C [28] was 0.11%, the viability, T/C [29] was 0.17% and the viability, T/C [30] was 0.07%. For the same compound, the viability, T/C [31] was 0.14%, the viability, T/C [32] was 0.16% and the viability, T/C [33] was 0.2%. The viability, T/C [34] was 0.19%, the viability, T/C [35] was 0.74% and the viability, T/C [36] was 0.26%. It also gave a viability, T/C [37] of 0.34%, a viability, T/C [38] of 0.17% and a viability, T/C [39] of 0.54%. It also gave a viability, T/C [40] of 0.22%, a viability, T/C [41] of 0.8% and a viability, T/C [42] of 2.02%.
C=C(F)C(=O)N1CCN(c2nc(OCC3CCCN3C)nc3c2CCN(c2cccc4cccc(Cl)c24)C3)CC1CC#N (configuration not stated) + CN1CCN(c2cc(C(=O)Nc3cc4cc(-c5cnn(C)c5)ccc4cn3)ccn2)CC1 showed an IC50 [1] of 5760 nM, an IC50 [2] of 4990 nM and an IC50 [3] of less than 31.6 nM. The IC50 [4] was less than 31.6 nM, the IC50 [5] was less than 31.6 nM and the IC50 [6] was less than 31.6 nM. For the same compound, the viability, T/C [7] was 97.8%, the viability, T/C [8] was 109% and the viability, T/C [9] was 98.9%. For the same compound, the viability, T/C [10] was 101%, the viability, T/C [11] was 101% and the viability, T/C [12] was 3.09%. It also gave a viability, T/C [13] of 75.4%, a viability, T/C [14] of 82.9% and a viability, T/C [15] of 80.2%. The viability, T/C [16] was 81%, the viability, T/C [17] was 91.9% and the viability, T/C [18] was 0.93%. For the same compound, the viability, T/C [19] was 1.92%, the viability, T/C [20] was 2.64% and the viability, T/C [21] was 2.38%. The viability, T/C [22] was 2.24%, the viability, T/C [23] was 1.56% and the viability, T/C [24] was 0.09%. For the same compound, the viability, T/C [25] was 0.15%, the viability, T/C [26] was 0.21% and the viability, T/C [27] was 2.03%. It also gave a viability, T/C [28] of 0.11%, a viability, T/C [29] of 0.1% and a viability, T/C [30] of 1.24%. For the same compound, the viability, T/C [31] was 0.17%, the viability, T/C [32] was 2.27% and the viability, T/C [33] was 0.55%. The viability, T/C [34] was 0.15%, the viability, T/C [35] was 0.12% and the viability, T/C [36] was 1%. It also gave a viability, T/C [37] of 1.46%, a viability, T/C [38] of 0.37% and a viability, T/C [39] of 0.27%. It also gave a viability, T/C [40] of 0.68%, a viability, T/C [41] of 0.23% and a viability, T/C [42] of 0.25%.
For CCN1CCN(Cc2ccc(Nc3ncc(F)c(-c4cc(F)c5nc(C)n(C(C)C)c5c4)n3)nc2)CC1, the viability, T/C (compound 0.00316 µM) was 95.9% and 106%, the viability, T/C (compound 0.01 µM) was 99.1% and 87.2% and the viability, T/C (compound 0.0316 µM) was 89.6% and 75.1%. For the same compound, the viability, T/C (compound 0.1 µM) was 75.3% and 70.8%, the viability, T/C (compound 0.316 µM) was 60.3% and 65% and the viability, T/C (compound 1 µM) was 62.7% and 64.3%. The IC50 (curve of compound) was greater than 1000 nM.
CC(Nc1ccc2c(c1)OCCn1cc(N3C(=O)OCC3C(F)F)nc1-2)C(N)=O (configuration not stated) + CNC(=O)c1ccc(Nc2nc(OC3CCCC3)c3c(-c4ccc5nc(C)oc5c4)c[nH]c3n2)c(OC)c1 gave an IC50 [1] greater than 10000 nM, an IC50 [2] of 5040 nM and an IC50 [3] of 467 nM. For the same compound, the IC50 [4] was less than 31.6 nM, the IC50 [5] was less than 31.6 nM and the IC50 [6] was less than 31.6 nM. For the same compound, the viability, T/C [7] was 98.4%, the viability, T/C [8] was 79.5% and the viability, T/C [9] was 80%. It also gave a viability, T/C [10] of 70.7%, a viability, T/C [11] of 67.9% and a viability, T/C [12] of 46%. The viability, T/C [13] was 96.8%, the viability, T/C [14] was 86.4% and the viability, T/C [15] was 74.9%. For the same compound, the viability, T/C [16] was 59%, the viability, T/C [17] was 58.6% and the viability, T/C [18] was 43%. The viability, T/C [19] was 54.8%, the viability, T/C [20] was 54.4% and the viability, T/C [21] was 55.6%. The viability, T/C [22] was 41.2%, the viability, T/C [23] was 36.8% and the viability, T/C [24] was 30.3%. The viability, T/C [25] was 31.1%, the viability, T/C [26] was 26.9% and the viability, T/C [27] was 22.5%. For the same compound, the viability, T/C [28] was 19.7%, the viability, T/C [29] was 16.9% and the viability, T/C [30] was 13.5%. It also gave a viability, T/C [31] of 23.5%, a viability, T/C [32] of 26.3% and a viability, T/C [33] of 23.5%. For the same compound, the viability, T/C [34] was 21.5%, the viability, T/C [35] was 14.7% and the viability, T/C [36] was 13.5%. The viability, T/C [37] was 24.3%, the viability, T/C [38] was 22.8% and the viability, T/C [39] was 21.1%. For the same compound, the viability, T/C [40] was 19.7%, the viability, T/C [41] was 13.3% and the viability, T/C [42] was 11.1%.
C#Cc1c(F)ccc2cc(O)cc(-c3ncc4c(N5CC6CCC(C5)N6)nc(OCC56CCCN5CC(F)C6)nc4c3F)c12 (configuration not stated) + CNC(=O)c1ccc(Nc2nc(OC3CCCC3)c3c(-c4ccc5nc(C)oc5c4)c[nH]c3n2)c(OC)c1 gave an IC50 [1] of 40.1 nM, an IC50 [2] of 35 nM and an IC50 [3] of less than 31.6 nM. The IC50 [4] was less than 31.6 nM, the IC50 [5] was less than 31.6 nM and the IC50 [6] was less than 31.6 nM. It also gave a viability, T/C [7] of 52.8%, a viability, T/C [8] of 41.1% and a viability, T/C [9] of 32.7%. It also gave a viability, T/C [10] of 32.5%, a viability, T/C [11] of 29.4% and a viability, T/C [12] of 22.4%. The viability, T/C [13] was 50.7%, the viability, T/C [14] was 43.8% and the viability, T/C [15] was 33.5%. It also gave a viability, T/C [16] of 27.5%, a viability, T/C [17] of 26% and a viability, T/C [18] of 15.1%. For the same compound, the viability, T/C [19] was 37.8%, the viability, T/C [20] was 30.9% and the viability, T/C [21] was 19.4%. For the same compound, the viability, T/C [22] was 12.7%, the viability, T/C [23] was 13.8% and the viability, T/C [24] was 12.1%. The viability, T/C [25] was 16.7%, the viability, T/C [26] was 12.7% and the viability, T/C [27] was 12.2%. It also gave a viability, T/C [28] of 12.7%, a viability, T/C [29] of 10.9% and a viability, T/C [30] of 7.84%. For the same compound, the viability, T/C [31] was 15.9%, the viability, T/C [32] was 12.7% and the viability, T/C [33] was 11.3%. For the same compound, the viability, T/C [34] was 11.3%, the viability, T/C [35] was 9.18% and the viability, T/C [36] was 6.34%. It also gave a viability, T/C [37] of 17.9%, a viability, T/C [38] of 12.4% and a viability, T/C [39] of 11.5%. For the same compound, the viability, T/C [40] was 12%, the viability, T/C [41] was 10.3% and the viability, T/C [42] was 5.25%.
